Reference: patent US4250183A, “N-(Substituted amino)alkanoyl-aminoalkanoic acids and salts, their use and their compositions” (BYK Gulden Lomberg Chemische Fabrik GmbH, priority 1977, dated 1981)

Assays:
in vivo = conditions: mouse, ip
Protocol: (§7) The animals (5 animals per dose) are given food and water ad lib. Different dosages of the substances are administered intraperitoneally. The duration of observation is 14 days.

pancreatic secretion = experiment: Influence on the pancreatic secretion of the narcotized rat after intraduodenal application; format: in vivo, rat (male Sprague-Dawley); conditions: Rattus norvegicus, 0.5 h, read-out: Pancreatic Secretion ED50 (dose which brings about an increase in the pancreatic secretion by a maximum of 50%)
Excerpt: (§1) Influence on the Pancreatic and Bile Secretion of the Narcotized Rat Carrying out the Test
(§2) Male Sprague-Dawley rats (250 to 300 g body weight) are narcotized with 1.2 g/kg urethane i.m. Then the abdominal cavity is opened medially, the Ductus choledochus ligatured shortly above its entry into the duodenum and also near the liver joint, and both sections are catheterized towards the liver.
(§3) As in the case of the rat all pancreatic ducts lead into the center section of the Ductus choledochus; it is thus possible in this way to derive separately the pancreatic secreta from the distal (ligatured) section and the bile from the proximal section of the Ductus choledochus.
(§4) The separated quantities of pancreatic juice and bile juice are measured at intervals of 30 minutes during the period from before 2 hours to 3 hours after the intraduodenal […] administration of the compounds to be tested (volume of liquid administered 5 ml/kg).
(§5) The body temperature of the animals is maintained at from 36° to 38° C. by means of electric blankets and radiation; the monitoring of the temperature is carried out rectally.
(§6) The liquid volumes of the 30-minute fractions after the administration of the product are related in each case to the quantity of bile or pancreatic juice secreted prior to the application of the substance (=100%, mean of the two last measurements). The maximum percentage increase of the pancreatic or bile secretion is plotted against the dose and, from this, the ED50 is determined by interpolation.

[1] = as above; format: in vivo, rat (male Sprague-Dawley); conditions: in vivo; Table I; LD50 mouse i.p. / ED50 pancreatic secretion rat i.d.; read-out: TQ (LD50/ED50), pancreatic secretion
Excerpt: as §1, §2, §3, §4, §5, §6

bile secretion = experiment: Influence on the bile secretion (choleresis) of the narcotized rat after intraduodenal application; format: in vivo, rat (male Sprague-Dawley); conditions: Rattus norvegicus, 0.5 h, read-out: Bile Secretion ED50 (dose which brings about an increase in the bile secretion by a maximum of 50%)
Excerpt: as §1, §2, §3, §4, §5, §6

[2] = as above; format: in vivo, rat (male Sprague-Dawley); conditions: in vivo; Table II; LD50 mouse i.p. / ED50 bile secretion rat i.d.; read-out: TQ (LD50/ED50), bile secretion
Excerpt: as §1, §2, §3, §4, §5, §6

female NMRI mice = experiment: Determination of the toxicity, lethal effect on the mouse after intraperitoneal application; conditions: Table II, i.p., 14 days observation;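 note: mice received several intraperitoneal dose levels, five animals per level, and were followed for 14 days to estimate the lethal dose for half the animals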
Protocol: as §7

SMILES	LD50 at 336 h (in vivo) [mg/kg]	ED50 (pancreatic secretion) [mg/kg]	selectivity ratio [1]	ED50 (bile secretion) [mg/kg]	selectivity ratio [2]	Toxicity LD50 (female NMRI mice) [mg/kg]
COc1ccc(N(CC(=O)NCC(=O)O)C(=O)c2ccc(Cl)cc2)cc1 [Serial No. 4, N-[N-(p-chlorobenzoyl)-2-(p-anisidino)acetyl]glycine]	> 1000	15	> 67			
Cc1cccc(C)c1N(CCCC(=O)O)C(=O)CCCN(C(=O)c1ccc(Cl)cc1)c1c(C)cccc1C [Serial No. 11, N-[N-(p-chlorobenzoyl)-4-(2,6-dimethylanilino)butyryl]-4-(2,6-dimethylanilino)butyric acid]	130	1	130	3	43	
Cc1cccc(C)c1N(CCCC(=O)NCCCC(=O)O)C(=O)c1ccc(Cl)cc1 [Serial No. 14, N-[N-(p-chlorobenzoyl)-4-(2,6-dimethylanilino)butyryl]-4-aminobutyric acid]	400	0.4	1000			
COc1ccc(N(CCCC(=O)O)C(=O)CCN(C(=O)c2ccc(Cl)cc2)c2ccc(OC)cc2)cc1 [Serial No. 10, N-[N-(p-chlorobenzoyl)-3-(p-anisidino)propionyl]-4-(p-anisidino)butyric acid]	220	~1	~220			
COc1ccc(N(CCCC(=O)O)C(=O)C(C)N(C(=O)c2ccco2)c2ccc(OC)cc2)cc1 (centres unmarked) [Serial No. 17, N-[N-(2-furoyl)-2-(p-anisidino)propionyl]-4-(p-anisidino)butyric acid]	750	5	150	11	68	
COc1ccc(N(CCCC(=O)O)C(=O)CCCN(C(=O)c2ccc(Cl)cc2)c2c(C)cccc2C)cc1 [Serial No. 13, N-[N-(p-chlorobenzoyl)-4-(2,6-dimethylanilino)butyryl]-4-(p-anisidino)butyric acid]	150	0.8	188			
CCc1cccc(C)c1N(CCCC(=O)O)C(=O)CCN(C(C)=O)c1c(C)cccc1C [Serial No. 22, N-[N-acetyl-3-(2,6-dimethylanilino)propionyl]-4-(2-ethyl-6-methylanilino)butyric acid]	430	3	143	1.3	331	
COc1ccc(N(CC(=O)N(CCCC(=O)O)c2ccc(OC)cc2)C(C)=O)cc1 [Serial No. 8, N-[N-acetyl-2-(p-anisidino)acetyl]-4-(p-anisidino)butyric acid]	1200	1	1200			
COc1cc(C(=O)N(CCCC(=O)NCCCC(=O)O)c2c(C)cccc2C)cc(OC)c1OC [Serial No. 15, N-[N-(3,4,5-trimethoxybenzoyl)-4-(2,6-dimethylanilino)butyryl]-4-aminobutyric acid]	800	~1	~800			
COc1ccc(N(CCCC(=O)O)C(=O)[C@H](CCSC)NC(=O)c2ccc(Cl)cc2)cc1 [Serial No. 23, N-[N-(p-chlorobenzoyl)methionyl]-4-(p-anisidino)butyric acid]	700			2.5	280	
Cc1cccc(C)c1N(CC(=O)NCC(=O)O)C(=O)c1ccc(Cl)cc1 [Serial No. 6, N-[N-(p-chlorobenzoyl)-2-(2,6-dimethylanilino)acetyl]glycine]	400	~5	~80			
Cc1cccc(C)c1N(CCCC(=O)N(C)CC(=O)O)C(=O)c1ccc(Cl)cc1 [Serial No. 2, N-[N-(p-chlorobenzoyl)-4-(2,6-dimethylanilino)butyryl]sarcosine]	700	10	70			
COc1ccc(N(CCCC(=O)O)C(=O)C(C)N(C(C)=O)c2ccc(OC)cc2)cc1 (centres unmarked) [Serial No. 16, N-[N-acetyl-2-(p-anisidino)propionyl]-4-(p-anisidino)butyric acid]	600			10	60	
COc1ccc(N(CCCC(=O)O)C(=O)CCN(C(=O)c2ccc(Cl)cc2)c2c(C)cccc2C)cc1 [Serial No. 25, N-[N-(p-chlorobenzoyl)-3-(2,6-dimethylanilino)propionyl]-4-(p-anisidino)butyric acid]	60			~1	~60	
COc1ccc(N(CCCC(=O)O)C(=O)CCN(C(C)=O)c2c(C)cccc2C)cc1 [Serial No. 20, N-[N-acetyl-3-(2,6-dimethylanilino)propionyl]-4-(p-anisidino)butyric acid]	600	7	86	7	86	
Cc1cccc(C)c1N(CC(=O)NCCC(=O)O)C(=O)c1ccc(Cl)cc1 [Serial No. 7, N-[N-(p-chlorobenzoyl)-2-(2,6-dimethylanilino)acetyl]-3-aminopropionic acid]	450	≤ 1	≥ 450	10	45	
COc1ccc(N(CCCC(=O)O)C(=O)CN(C(=O)c2ccc(Cl)cc2)c2ccc(OC)cc2)cc1 [Serial No. 9, N-[N-(p-chlorobenzoyl)-2-(p-anisidino)acetyl]-4-(p-anisidino)butyric acid]	420	3	140			
CCc1cccc(CC)c1N(CCCC(=O)O)C(=O)CCN(C(C)=O)c1c(C)cccc1C [Serial No. 21, N-[N-acetyl-3-(2,6-dimethylanilino)propionyl]-4-(2,6-diethylanilino)butyric acid]	280			~1	~280	
COc1ccc(C(=O)N[C@@H](Cc2ccccc2)C(=O)N(CCCC(=O)O)c2ccc(OC)cc2)cc1 [Serial No. 24, N-[N-(p-methoxybenzoyl)phenylalanyl]-4-(p-anisidino)butyric acid]	300	6	50	6	50	
COc1ccc(N(CC(=O)NCCC(=O)O)C(=O)c2ccc(Cl)cc2)cc1 [Serial No. 5, N-[N-(p-chlorobenzoyl)-2-(p-anisidino)acetyl]-3-aminopropionic acid]	1300	25	52			
COc1ccc(N(CCCC(=O)N(CCCC(=O)O)c2c(C)cccc2C)C(=O)c2ccc(Cl)cc2)cc1 [Serial No. 12, N-[N-(p-chlorobenzoyl)-4-(p-anisidino)butyryl]-4-(2,6-dimethylanilino)butyric acid]	800	2	400	14	57	
COc1ccc(N(CC(=O)N(C)CC(=O)O)C(=O)c2ccc(Cl)cc2)cc1 [Serial No. 3, N-[N-(p-chlorobenzoyl)-2-(p-anisidino)acetyl]sarcosine]	> 1000	15	> 67			
COc1ccc(N(CCCC(=O)O)C(=O)C(C)N(C(=O)c2ccc(Cl)cc2)c2ccc(OC)cc2)cc1 (centres unmarked) [Serial No. 18, N-[N-(p-chlorobenzoyl)-2-(p-anisidino)propionyl]-4-(p-anisidino)butyric acid]	≤ 250	5	≤ 50	7	≤ 36	≤ 250
